Test results as given in US20240382629A1, “HETEROBIVALENT AND HOMOBIVALENT AGENTS TARGETING FIBROBLAST ACTIVATION PROTEIN ALPHA AND/OR PROSTATE-SPECIFIC MEMBRANE ANTIGEN” (The Johns Hopkins University, priority 2021, published 2024).
Several values for one entry are separate records, joined by “and”; a condition that tells them apart may be missing. Equal values may be shown once.

Assay: Biodistribution of representative compounds ([^18F]Sri-07-56, [^18F]Sri-07-52, [^18F]JHU1221823, [^18F]FAPI-74), tissue % ID/g with carrier or blocker
Type: in vivo, mouse
Settings: for Bladder % ID/g / Blood % ID/g / Brain % ID/g / Fat % ID/g / Femur % ID/g / Heart % ID/g / Kidney % ID/g / Large intestine % ID/g / Liver % ID/g / Lung % ID/g / Muscle % ID/g / Pancreas % ID/g / Salivery gland % ID/g / Small intestine % ID/g / Spleen % ID/g / Stomach % ID/g / Tumor % ID/g: individual mice
Description: Biodistribution of Representative Compounds

## N#CC1CCCN1C(=O)CNC(=O)c1ccnc2ccc(OCCCNC(=O)CCc3cn(CCC(NC(=O)c4ccc([18F])nc4)C(=O)NCCCCC(NC(=O)NC(CC(=O)O)C(=O)O)C(=O)O)nn3)cc12 (centres unmarked) [[^18F]Sri-07-52]
30 min, ~100 μCi per mouse
  Bladder % ID/g Mean: 1.98 % ID/g
  Blood % ID/g Mean: 10.03 % ID/g
  Brain % ID/g Mean: 0.21 % ID/g
  Fat % ID/g Mean: 0.50 % ID/g
  Femur % ID/g Mean: 2.53 % ID/g
  Heart % ID/g Mean: 4.58 % ID/g
  Kidney % ID/g Mean: 2.71 % ID/g
  Large intestine % ID/g Mean: 3.78 % ID/g
  Liver % ID/g Mean: 3.20 % ID/g
  Lung % ID/g Mean: 6.18 % ID/g
  Muscle % ID/g Mean: 2.09 % ID/g
  Pancreas % ID/g Mean: 5.86 % ID/g
  Salivary gland % ID/g Mean: 13.84 % ID/g
  Small intestine % ID/g Mean: 4.36 % ID/g
  Spleen % ID/g Mean: 2.03 % ID/g
  Stomach % ID/g Mean: 1.71 % ID/g
  Tumor % ID/g Mean: 4.99 % ID/g
  Bladder % ID/g: 1.47 % ID/g and 2.50 % ID/g
  Blood % ID/g: 9.03 % ID/g and 11.04 % ID/g
  Brain % ID/g: 0.24 % ID/g and 0.19 % ID/g
  Fat % ID/g: 0.36 % ID/g and 0.64 % ID/g
  Femur % ID/g: 2.15 % ID/g and 2.91 % ID/g
  Heart % ID/g: 4.65 % ID/g and 4.52 % ID/g
  Kidney % ID/g: 2.62 % ID/g and 2.80 % ID/g
  Large intestine % ID/g: 5.82 % ID/g and 1.74 % ID/g
  Liver % ID/g: 3.03 % ID/g and 3.36 % ID/g
  Lung % ID/g: 6.53 % ID/g and 5.82 % ID/g
  Muscle % ID/g: 2.07 % ID/g and 2.12 % ID/g
  Pancreas % ID/g: 6.54 % ID/g and 5.18 % ID/g
  Salivery gland % ID/g: 11.28 % ID/g and 16.41 % ID/g
  Small intestine % ID/g: 4.18 % ID/g and 4.54 % ID/g
  Spleen % ID/g: 2.06 % ID/g and 1.99 % ID/g
  Stomach % ID/g: 1.72 % ID/g and 1.71 % ID/g
  Tumor % ID/g: 5.57 % ID/g and 4.40 % ID/g
120 min, 20 μCi per mouse
  Bladder % ID/g Mean: 1.66 % ID/g
  Blood % ID/g Mean: 5.44 % ID/g
  Brain % ID/g Mean: 0.22 % ID/g
  Fat % ID/g Mean: 0.56 % ID/g
  Femur % ID/g Mean: 2.17 % ID/g
  Heart % ID/g Mean: 3.20 % ID/g
  Kidney % ID/g Mean: 2.71 % ID/g
  Large intestine % ID/g Mean: 1.08 % ID/g
  Liver % ID/g Mean: 2.33 % ID/g
  Lung % ID/g Mean: 3.15 % ID/g
  Muscle % ID/g Mean: 1.53 % ID/g
  Pancreas % ID/g Mean: 3.98 % ID/g
  Salivary gland % ID/g Mean: 7.20 % ID/g
  Small intestine % ID/g Mean: 2.64 % ID/g
  Spleen % ID/g Mean: 1.51 % ID/g
  Stomach % ID/g Mean: 1.11 % ID/g
  Tumor % ID/g Mean: 1.96 % ID/g
  Bladder % ID/g: 0.97 % ID/g and 2.35 % ID/g
  Blood % ID/g: 4.70 % ID/g and 6.19 % ID/g
  Brain % ID/g: 0.32 % ID/g and 0.13 % ID/g
  Fat % ID/g: 0.74 % ID/g and 0.38 % ID/g
  Femur % ID/g: 1.99 % ID/g and 2.35 % ID/g
  Heart % ID/g: 3.20 % ID/g and 3.21 % ID/g
  Kidney % ID/g: 1.66 % ID/g and 3.77 % ID/g
  Large intestine % ID/g: 0.85 % ID/g and 1.30 % ID/g
  Liver % ID/g: 2.28 % ID/g and 2.43 % ID/g
  Lung % ID/g: 2.65 % ID/g and 3.65 % ID/g
  Muscle % ID/g: 1.58 % ID/g and 1.47 % ID/g
  Pancreas % ID/g: 3.00 % ID/g and 4.96 % ID/g
  Salivery gland % ID/g: 6.20 % ID/g and 8.21 % ID/g
  Small intestine % ID/g: 2.55 % ID/g and 2.72 % ID/g
  Spleen % ID/g: 1.54 % ID/g and 1.49 % ID/g
  Stomach % ID/g: 1.00 % ID/g and 1.23 % ID/g
  Tumor % ID/g: 1.67 % ID/g and 2.25 % ID/g
